Reference: patent US20070128217A1 (priority 2003, published 2007)

Assays:
[1] = tested on: antibodies in sera from SARS patients (sera 1a, 1b, 2, 6, 37, 62, London, SARS-yellow, SARS-green); format: binding, human; set-up: Binding of serum 6 to linear peptides of protein X1 of SARS-CoV Urbani / Binding of serum 37 to linear peptides of protein X1 of SARS-CoV Urbani / Binding of serum 6 to looped/cyclic peptide (PEPSCAN-ELISA) / Binding of serum 37 to looped/cyclic peptide (PEPSCAN-ELISA) / Binding of serum 37 to looped/cyclic peptides of protein X1 of SARS-CoV Urbani / Binding of serum 6 to linear peptides of protein X2 / Binding of serum 37 to linear peptides of protein X2 / Binding of serum 37 to looped/cyclic peptides of protein X2 of SARS-CoV Urbani / Binding of serum 6 to linear peptides of protein M of SARS-CoV Urbani / Binding of serum 37 to linear peptides of protein M of SARS-CoV Urbani / Binding of serum 6 to looped/cyclic peptides of protein M of SARS-CoV Urbani / Binding of serum 37 to looped/cyclic peptides of protein M of SARS-CoV Urbani / Binding of serum 6 to linear peptides of protein X3 of SARS-CoV Urbani / Binding of serum 37 to linear peptides of protein X3 of SARS-CoV Urbani / Binding of serum 37 to looped/cyclic peptides of protein X3 of SARS-CoV Urbani / Binding of serum 6 to linear peptides of protein X4 of SARS-CoV Urbani / Binding of serum 37 to linear peptides of protein X4 of SARS-CoV Urbani / Binding of serum 37 to looped/cyclic peptides of protein X4 of SARS-CoV Urbani / Binding of serum 6 to linear peptides of protein X5 of SARS-CoV Urbani / Binding of serum 37 to linear peptides of protein X5 of SARS-CoV Urbani / Binding of serum 37 to looped/cyclic peptides of protein X5 of SARS-CoV Urbani / Binding of serum 6 to linear peptides of protein N of SARS-CoV Urbani / Binding of serum 37 to linear peptides of protein N of SARS-CoV Urbani / Binding of serum 6 to linear peptide (PEPSCAN-ELISA) / Binding of serum 1a to looped/cyclic peptides of protein N of SARS-CoV Urbani / Binding of serum 1b to looped/cyclic peptides of protein N of SARS-CoV Urbani / Binding of serum 2 to looped/cyclic peptides of protein N of SARS-CoV Urbani / Binding of serum 6 to looped/cyclic peptides of protein N of SARS-CoV Urbani / Binding of serum 37 to looped/cyclic peptides of protein N of SARS-CoV Urbani / Binding of serum 62 to looped/cyclic peptides of protein N of SARS-CoV Urbani / Binding of serum London to looped/cyclic peptides of protein N of SARS-CoV Urbani / Binding of serum SARS-green to looped/cyclic peptides of protein N of SARS-CoV Urbani: unit not given here
[2] = tested on: control sera (pooled serum of ten healthy LUMC hospital workers; commercial negative donor pooled serum from the Dutch bloodbank); format: binding, human
[3] = tested on: rabbit serum obtained by immunizing a rabbit with the SARS-CoV strain Frankfurt 1; format: binding; set-up: Binding of a rabbit serum to linear peptides / Binding of a rabbit serum to looped peptides / Rabbit serum linear peptides / Rabbit serum looped peptides / Binding of a rabbit serum to linear peptides of protein N of SARS-CoV Urbani (Rabbit serum linear peptides) / Binding of a rabbit serum to looped/cyclic peptides of protein N of SARS-CoV Urbani (Rabbit serum looped peptides): unit not given here

Question: Which results are given for THRMCKYTQSTALQE?
Answer: Binding of serum 1a to linear peptides of protein X2 [1]: 0.9; Binding of serum 1a to looped/cyclic peptides of protein X2 of SARS-CoV Urbani [1]: 0.5; Binding of serum 1b to linear peptides of protein X2 [1]: 0.8; Binding of serum 1b to looped/cyclic peptides of protein X2 of SARS-CoV Urbani [1]: 0.6; Binding of serum 2 to linear peptides of protein X2 [1]: 0.5; Binding of serum 2 to looped/cyclic peptides of protein X2 of SARS-CoV Urbani [1]: 0.2; Binding of serum 6 to linear peptides of protein X2 [1]: 0.6; Binding of serum 6 to looped/cyclic peptides of protein X2 of SARS-CoV Urbani [1]: 0.2; Binding of serum 37 to linear peptides of protein X2 [1]: 0.7; Binding of serum 37 to looped/cyclic peptides of protein X2 of SARS-CoV Urbani [1]: 0.3; Binding of serum 62 to linear peptides of protein X2 [1]: 0.8; Binding of serum 62 to looped/cyclic peptides of protein X2 of SARS-CoV Urbani [1]: 0.4; Binding of serum London to linear peptides of protein X2 [1]: 0.7; Binding of serum London to looped/cyclic peptides of protein X2 of SARS-CoV Urbani [1]: 0.2; Binding of serum SARS-green to linear peptides of protein X2 [1]: 0.6; Binding of serum SARS-green to looped/cyclic peptides of protein X2 of SARS-CoV Urbani [1]: 0.5; Binding of serum SARS-yellow to linear peptides of protein X2 [1]: 0.8; Binding of serum SARS-yellow to looped/cyclic peptides of protein X2 of SARS-CoV Urbani [1]: 0.3; Binding of Control Serum Blood-Bank to Looped peptides [2]: 0.5; Binding of Control serum Blood-bank to linear peptides [2]: 0.9; Binding of Control serum LUMC to linear peptides [2]: 0.7; Binding of Control serum LUMC to looped peptides [2]: 0.4; Binding of a rabbit serum to linear peptides [3]: 0.3; Binding of a rabbit serum to looped peptides [3]: 0.3

Question: With TIAEILIIIMRTFRI as the sequence, how does the “Binding of serum 1a to linear peptides of protein X3 of SARS-CoV Urbani” value [1] read?
Answer: 0.8

Question: What about the “Binding of serum 1a to looped/cyclic peptides of protein X3 of SARS-CoV Urbani” value [1] of the same sequence?
Answer: 0.7

Question: And the “Binding of serum 1b to linear peptides of protein X3 of SARS-CoV Urbani” value [1]?
Answer: 0.3

Question: And the “Binding of serum 1b to looped/cyclic peptides of protein X3 of SARS-CoV Urbani” value [1]?
Answer: 0.4

Question: What about the “Binding of serum 2 to linear peptides of protein X3 of SARS-CoV Urbani” value [1] of the same sequence?
Answer: 0.7

Question: And the “Binding of serum 2 to looped/cyclic peptides of protein X3 of SARS-CoV Urbani” value [1]?
Answer: 0.6

Question: And the “Binding of serum 6 to linear peptides of protein X3 of SARS-CoV Urbani” value [1]?
Answer: 0.7

Question: What about the “Binding of serum 6 to looped/cyclic peptides of protein X3 of SARS-CoV Urbani” value [1] of the same sequence?
Answer: 0.4

Question: What about the “Binding of serum 37 to linear peptides of protein X3 of SARS-CoV Urbani” value [1] of the same sequence?
Answer: 0.6

Question: What about the “Binding of serum 37 to looped/cyclic peptides of protein X3 of SARS-CoV Urbani” value [1] of the same sequence?
Answer: 0.3

Question: What about the “Binding of serum 62 to linear peptides of protein X3 of SARS-CoV Urbani” value [1] of the same sequence?
Answer: 0.7

Question: What about the “Binding of serum 62 to looped/cyclic peptides of protein X3 of SARS-CoV Urbani” value [1] of the same sequence?
Answer: 0.4

Question: What about the “Binding of serum London to linear peptides of protein X3 of SARS-CoV Urbani” value [1] of the same sequence?
Answer: 0.7

Question: And the “Binding of serum London to looped/cyclic peptides of protein X3 of SARS-CoV Urbani” value [1]?
Answer: 0.2

Question: And the “Binding of serum SARS-green to linear peptides of protein X3 of SARS-CoV Urbani” value [1]?
Answer: 0.3

Question: And the “Binding of serum SARS-green to looped/cyclic peptides of protein X3 of SARS-CoV Urbani” value [1]?
Answer: 0.4

Question: What about the “Binding of serum SARS-yellow to linear peptides of protein X3 of SARS-CoV Urbani” value [1] of the same sequence?
Answer: 0.3

Question: What about the “Binding of serum SARS-yellow to looped/cyclic peptides of protein X3 of SARS-CoV Urbani” value [1] of the same sequence?
Answer: 0.5

Question: What about the “Binding of Control Serum Blood-Bank to Looped peptides of the protein X3 of SARS-CoV Urbani” value [2] of the same sequence?
Answer: 1.1

Question: And the “Binding of Control serum Blood-bank to linear peptides of the protein X3 of SARS-CoV Urbani” value [2]?
Answer: 0.8

Question: What about the “Binding of Control serum LUMC to linear peptides of the protein X3 of SARS-CoV Urbani” value [2] of the same sequence?
Answer: 0.6

Question: And the “Binding of Control serum LUMC to looped peptides of the protein X3 of SARS-CoV Urbani” value [2]?
Answer: 0.7

Question: What about the “Rabbit serum linear peptides” value [3] of the same sequence?
Answer: 0.2

Question: And the “Rabbit serum looped peptides” value [3]?
Answer: 0.0
